Data published in patent US12329876B2, “Porous bioresorbable radiopaque embolic microspheres for drug delivery” (REVA Medical, LLC, priority 2018, dated 2025).

Assay: degradation kinetics (mass loss) of copolymers and of microbeads from copolymer blends (FIGS. 12A, 12B)
Format: physicochemical
Text: The illustrative examples of achievable degradation profile are presented on FIGS. 12A and 12B.
Adjusting ratio of iodinated structural component (PrD-diI2DAT) and rubbery component (PEG400 or PEG1000), ratio of Carbonate to Oxalate bonds in single copolymer or utilizing blends of copolymers, a wide spectrum of degradation profiles could be achieved, including multi-step degradation.

Copolymer 50% PrD-di I2DAT-co-50% PEG1K with 100% carbonate bonds [Formula #4]
degradation kinetic (mass loss), result in words: slow degradation
